In brackets after ≈: the same amount, converted by molar mass. Like-named read-outs stand apart in the source and are kept apart here.
Legend:
P. aeruginosa PA-14 = test: Chronic rat lung (biofilm) infection model, lung bacterial load; assay type: in vivo, Sprague-Dawley rats; settings: 75 mg/kg PO, q24h for 4 days, started 3 days post-infection; lungs 22 h after last dose
Source text: Specific pathogen-free female Sprague–Dawley (SD) rats, weighing 200 ± 20 g (age 8 weeks), were used for the study. The rats were procured from Vivo Biotech Pvt. Ltd., Hyderabad, India. The animals were housed in a pathogen-free animal facility and allowed 5 days of acclimatization in the study room before initiating the experiment. Feed and water were provided ad libitum during acclimatization and the study periods. All animal studies were approved by the institutional animal ethics committee. The animal studies were conducted under the strict guidelines of the committee for the Purpose of Control and Supervision of Experiments on Animals, Ministry of Environment, Forests and Climate Change, New Delhi, Government of India, and under the supervision of the institutional committee.
To determine the in vivo efficacy of azithromycin, a chronic biofilm model of P. aeruginosa was established in SD rats, which mimic the human chronic infection ([Hoover et al., 2017]; [Chawanpaiboon et al., 2019]). A semisolid 0.25% w/v agar beads suspension was prepared and autoclaved a day before the in vivo experiment and stored overnight at 4°C. […] The rats were then euthanized 22 h after the last dose, and the lungs’ bacterial load was determined by plating diluted lung homogenates on MHA.

[1] = system: P. aeruginosa PA-14 planktonic cells; test: Time-kill kinetic study, planktonic cells; assay type: cell-based, Pseudomonas aeruginosa; settings: P. aeruginosa PA-14, LB media
Method: (§1) To further evaluate the effect of azithromycin on planktonic cells and biofilm formation, a time-kill kinetic study was performed. Briefly, 10 ml of LB broth containing 0.2% glucose and a sterile 2-cm-long piece of the catheter were pre-warmed at 26 ± 2°C in reaction tubes, and the different concentrations of azithromycin (2 or 16 μg/ml) were added to tubes. The bacterial inoculum of P. aeruginosa PA-14 was prepared as described above and added to the tubes to achieve a final inoculum of ∼1 × 10^5 CFU/ml. The tubes were incubated at 26 ± 2°C. The planktonic cell counts were determined at various time-points by serial dilution plating onto a trypticase soy agar plate. After 24 h of incubation, the catheter pieces from each tube were removed, non-adherent bacteria were washed from the catheter pieces, and the number of CFU embedded in biofilm per catheter was determined as described earlier ([Kumar et al., 2016], [2019]). The experiment was performed in triplicate, and the mean log10 killing of planktonic cells and biofilm inhibition were calculated for each concentration. To further assess biofilm formation in the absence (drug-free control) or presence of azithromycin, the catheter pieces were also sectioned and processed for scanning electron microscopy (SEM).

[2] = system: pelA promoter-lacZ in recombinant P. aeruginosa G2; test: β-galactosidase activity of pel promoter-lacZ transcriptional fusion; assay type: cell-based, Pseudomonas aeruginosa
Method: To understand the molecular mechanism of biofilm inhibition, a recombinant mutant P. aeruginosa G2-containing promoterless lacZ gene under promoter control of pelA was gifted to us by Prof. Kilter ([Sakuragi and Kolter, 2007]). The β-galactosidase activity was performed in the absence and presence of different concentrations of azithromycin and levofloxacin, as described earlier ([Sakuragi and Kolter, 2007]).

[3] = system: pre-formed biofilm of P. aeruginosa PAO1; test: Activity on pre-formed biofilm (eradication), crystal violet; assay type: cell-based; settings: Pseudomonas aeruginosa; pre-formed 24 h biofilm of P. aeruginosa PAO1, 24 h exposure; read-out: minimum biofilm eradication concentration (MBEC50)
Method: The efficacy of azithromycin was also evaluated on a pre-formed biofilm of P. aeruginosa PAO1 to assess the therapeutic or eradicative effect of azithromycin as described earlier ([Macia et al., 2014]). The bacterial suspension was prepared as described above and inoculated at 200 μl/well in a 96-well plate. After 24 h of incubation, the wells were emptied and washed with PBS and then spiked with different concentrations (16–0.015 μg/ml) of azithromycin prepared in LB broth containing 0.2% glucose. The plate was further incubated for 24 h, and the effect of azithromycin was assessed as described above.

[4] = Pharmacokinetics in plasma and lung ELF of P. aeruginosa-infected rats; settings: rat, in vivo, po, 75 mg/kg; for Kp: Sprague-Dawley, 75 mg/kg PO, infected rats
Method: The concentrations of azithromycin were assessed in the plasma and lung epithelial lining fluid (ELF) of the rats infected with P. aeruginosa PA-14. Intratracheal infection in rats was performed as described above. A single dose of 75 mg/kg of azithromycin was administered orally through gavage. Blood and broncho-alveolar lavage (BAL) fluid (with 2 ml of normal saline wash) were collected at different time-points up to 24 h post-dose from each animal by gross dissection. For the collection of BAL, 2 ml of sterile cold PBS was infused into the animal through the trachea and into the bronchial cavity and aspirated out. Plasma was harvested from blood samples by centrifugation. The azithromycin concentrations in plasma and BAL samples were determined using liquid chromatography with tandem mass spectrometry. The apparent volume of ELF (VELF) in BAL fluid was determined by the urea dilution method using the urea assay kit from BioChain (Hayward, CA). The concentration of azithromycin in ELF (CELF) was determined as
where CBAL is the measured concentration of azithromycin in BAL fluid.

P. aeruginosa G2 = test: MIC; assay type: cell-based; settings: Pseudomonas aeruginosa
[5] = system: P. aeruginosa PA-14 biofilm; test: Solid-surface biofilm formation on catheter piece (CFU, SEM); assay type: cell-based, Pseudomonas aeruginosa; settings: P. aeruginosa PA-14, 24 h, azithromycin 2 or 16 μg/ml
Method: as §1

[6] = system: P. aeruginosa PAO1 biofilm; test: In vitro biofilm formation inhibition, crystal violet, 96-well plate; assay type: cell-based; settings: Pseudomonas aeruginosa; P. aeruginosa PAO1, 24 h exposure, LB broth with 0.2% glucose; read-out: biofilm preventive concentration (BPC50)
Method: The effect of azithromycin and clindamycin on P. aeruginosa biofilm formation was assessed as described previously ([Sharma et al., 2009]; [Barman et al., 2016]; [Kumar et al., 2019]). Briefly, the overnight-grown culture of P. aeruginosa PAO1 in TSB was pelleted and resuspended in Luria-Bertani broth containing 0.2% glucose (10^7 CFU/ml). The bacterial suspension was spiked with different concentrations (16-0.015 μg/ml) of azithromycin or clindamycin in 96-well plates and incubated at 26 ± 2°C. The effects of azithromycin and clindamycin on inhibition of biofilm formation were assayed after 24 h of exposure. The wells were emptied and washed three times with phosphate-buffered saline (PBS; pH 7.3), and the adherent biofilm was stained with 200 μl of 1% crystal violet for 30 min and rinsed with distilled water. The adherent biofilm in the wells was solubilized with 200 μl of 30% acetic acid, and the optical density at 600 nm (OD600) was measured to quantify the formed biofilms. Each experiment was performed thrice, and the mean percent inhibition and standard deviations were calculated. The relative inhibition of biofilms, expressed as a mean percentage, was determined using the following formula: Percentinhibition=100-{([…]-controlwell)×100}

[7] = system: QS molecule (3-O-C12 HSL) of P. aeruginosa; test: QS molecule in epithelial lining fluid of infected rats; assay type: in vivo; settings: azithromycin treated rats vs placebo control, 7 days post-infection

Compound	reduction in bacterial counts as compared to the placebo control (P. aeruginosa PA-14) [log10]	reduction in planktonic cell counts as compared to the drug-free control ([1]; 6 h) [log10]	effect on planktonic cell counts ([1]; 24 h post-incubation)	IC50 ([2]; Pseudomonas aeruginosa, read-out: inhibition of β-galactosidase activity, IC50) [µg/mL]	IC50 [3] [µg/mL]	Kp ([4]; read-out: lung ELF/plasma ratio of AUCinf)	Kp ([4]; read-out: lung ELF/plasma ratio of Cmax)	Cmax [4] [ng/mL]	Tmax [4] [h]	MIC (P. aeruginosa G2) [µg/mL]	solid-surface biofilm formation on catheter pieces [5]	IC50 [6] [µg/mL]	level of QS molecules in the ELF [7]	effect on β-galactosidase activity ([2]; P. aeruginosa G2, sub-MIC concentrations)
CC[C@H]1OC(=O)[C@H](C)[C@@H](O[C@H]2C[C@@](C)(OC)[C@@H](O)[C@H](C)O2)[C@H](C)[C@@H](O[C@@H]2O[C@H](C)C[C@H](N(C)C)[C@H]2O)[C@](C)(O)C[C@@H](C)CN(C)[C@H](C)[C@@H](O)[C@]1(C)O [azithromycin]	1.67	1.86	no effect	0.17 (≈ 0.227 µM)	7.49 (≈ 10 µM)	86	81	950 ± 300	2	> 0.032	no solid-surface biofilm formed	0.122 (≈ 0.163 µM)	comparatively reduced level	–
C[C@H]1COc2c(N3CCN(C)CC3)c(F)cc3c(=O)c(C(=O)O)cn1c23 [levofloxacin]	–	–	–	–	–	–	–	–	–	0.001 (≈ 0.00277 µM)	–	–	–	did not influence
